Tested on: Sprague-Dawley rats
Assay: Muscle pressure pain threshold value after repeated administration of reserpine
Type: in vivo, rat
Conditions: for time after reserpine final administration until which muscle pressure pain threshold value was statistically significantly low vs solvent group: reserpine 1 mg/kg s.c. once a day for 3 days
Method: Measurement of muscle pressure pain threshold value was carried out in accordance with the method of Schafers et al. (Schafers M. et al., Pain, 104, 579-588, 2003). A pressure stimulus of gradually increasing to 250 g at the maximum was added to the rat right hind leg gastrocnemius muscle. […] The measurement was carried out 3 times at each point of time of the measurement, and the average was used as the measurement value. Measurement of the skin pain sensation threshold value was carried out in accordance with the method of Chaplan et al. (Chaplan et al., J. Neurosci. Methods, 53, 55-63, 1994). This was measured using a series of von Frey filaments having different diameters which may add a constant pressure. […] The von Frey filament was applied using the up and down method. That is, by firstly applying a filament of middle diameter, a filament having one rank smaller diameter was applied when the withdrawal reaction was observed or a filament having one rank larger diameter was applied when the withdrawal reaction was not observed. The skin pain sensation threshold value at each point of time of the measurement was calculated as a hind paw withdrawal reaction threshold value (g) using the calculation formula reported by Chaplan et al. (Chaplan et al., described above). Influences of reserpine upon the muscle pressure pain threshold value and skin pain sensation threshold value were examined by the following protocol. A total of 24 animals for each of male and female rats were used. After measuring muscle pressure pain threshold value and skin pain sensation threshold value before the reserpine treatment (base line), they were divided based on the reserpine administration doses into a solvent (0.5% acetic acid aqueous solution) group, a reserpine 0.1 mg/kg group, a 0.3 mg/kg group and a 1 mg/kg group (the number of animals per one group was 6). The solvent or reserpine was subcutaneously administered on the back of the rats of each group once a day for 3 days. All of the administration volume of the solvent or reserpine was set to 1 ml per 1 kg body weight of each animal. After final administration of the solvent or reserpine, the muscle pressure pain threshold value and skin pain sensation threshold value of each rat were measured 1, 3, 5, 7, 10, 14 and 21 days thereafter.
All of the measured values were expressed as average value±standard error. Statistical significance test of the measured values between the reserpine administration groups and the solvent administration group at each point of time was carried out by a two-way analysis of variance and the Bonferroni method. Probability value (P) of less than 5% was judged as statistically significant (P<0.05 was expressed as * in the graphs).

SMILES: COC(=O)[C@H]1[C@H]2C[C@@H]3c4[nH]c5cc(OC)ccc5c4CCN3C[C@H]2C[C@@H](OC(=O)c2cc(OC)c(OC)c(OC)c2)[C@@H]1OC [reserpine]
- time after reserpine final administration until which muscle pressure pain threshold value was statistically significantly low vs solvent group (female rats): 7 days
- muscle pressure pain threshold value (male and female rats, reserpine 0.1, 0.3, 1 mg/kg s.c. once a day for 3 days, two-way analysis of variance vs solvent): significantly reduced
- time after reserpine final administration until which muscle pressure pain threshold value was statistically significantly low vs solvent group (male rats): 10 days
- muscle pressure pain threshold value (reserpine 1 mg/kg group, s.c. once a day for 3 days): markedly reduced
- duration of chronic muscle pain and chronic tactile allodynia after administration (reserpine administered to a mammal (summary statement)): ≥ 1 week

— patent US8795632B2, “Disease animal model for chronic pain” (Astellas Pharma Inc., priority 2008, dated 2014)
